Here are results for two molecules from patent US8791099B2, “Transition metal complexes of corroles for preventing cardiovascular diseases or disorders” (Technion Research and Development Foundation Ltd., priority 2007, dated 2014).

Experiment [1] can be described thus: Decomposition of peroxynitrite, comparison with punicalagin. The conditions noted are these: calculated from rate constants. The protocol:
For initial assessment of possible superiority of the metallocorroles relative to natural antioxidants, we have determined the effect of excess (45-135 μM) punicalagin—the active polyphenolic hydrolysable tannin ingredient of pomegranate juice (Tzulker et al., 2007), on decomposition of peroxynitrite (40 μM).

In experiment [2] the test system is mouse peritoneal macrophages (MPM). Briefly: Cholesterol synthesis by MPM of treated E^0 mice. The conditions noted are these: drinking water 0.04 mM (8 mg/Kg/day), 14 weeks.
Experimental: Cellular cholesterol biosynthesis was assayed after incubation of macrophages (3×10^6 well^−1) overnight with DMEM containing 2% BSA followed by additional 3 h of incubation at 37° C. with [^3H]-acetate (3.3 μCi/ml). Cellular lipids were extracted with hexane:isopropanol (3:2, v:v), and the upper phase was dried under nitrogen. The lipids were then separated by TLC using an eluent of hexane:ether:acetic acid (130:30:1.5, v:v:v). Unesterified cholesterol spots were visualized by iodine vapor (by using standard for identification) and counted with β-counter.
Experiment [3] relates to J-774 macrophages. Put plainly: Cholesterol efflux from J-774 macrophages by serum of treated E^0 mice. The conditions noted are these: drinking water 0.04 mM (8 mg/Kg/day), 14 weeks.
Experimental: J-774 macrophages were incubated with [^3H]-labeled cholesterol for 1.5 h at 37° C. followed by cell wash in ice-cold PBS (3×) and further incubation in the presence of 15 μL mice serum for 3 h at 37° C. Cellular and medium [^3H]-labels were quantitated and HDL-mediated cholesterol efflux was calculated as the ratio of [^3H]-label in the medium/[^3H]-label in the medium+[^3H]-label in cells.
The test system of experiment [4] is mouse peritoneal macrophages (MPM). Put plainly: Cholesterol efflux from MPM of treated E^0 mice. The conditions noted are these: drinking water 0.04 mM (8 mg/Kg/day), 14 weeks.
Experimental: Mouse peritoneal macrophages were incubated with [^3H]-labeled cholesterol for 1 h at 37° C. followed by cell wash in ice-cold PBS (3×) and further incubation in the absence or presence of 100 μg of human HDL protein/ml for 3 h at 37° C. Cellular and medium [^3H]-labels were quantitated and HDL-mediated cholesterol efflux was calculated as the ratio of [^3H]-label in the medium/[^3H]-label in the medium+[^3H]-label in cells.

Molecules are shown by their SMILES.

On to `O=C1O[C@H]2[C@@H]3OC(=O)c4cc(O)c(O)c(O)c4-c4c(O)c(O)c5oc(=O)c6c(c(O)c(O)c7oc(=O)c4c5c76)-c4c(cc(O)c(O)c4O)C(=O)OC[C@H]3OC(O)[C@@H]2OC(=O)c2cc(O)c(O)c(O)c2-c2c1cc(O)c(O)c2O` (mixture of isomers) [punicalagin, reference compound], for which the “Minimal concentration required for reducing the half lifetime of peroxynitrite by 50%” value in experiment [1] is given as 250 mol %.
As to `COc1c(F)c(F)c(C2=C3C=CC(=N3)C(c3c(F)c(F)c(OC)c(F)c3F)=c3ccc4[n]3[Fe]3[n]5c(cc(S(=O)(=O)O)c5C=4c4c(F)c(F)c(OC)c(F)c4F)-c4c(S(=O)(=O)O)cc2[n]43)c(F)c1F` [2-Fe, 5,10,15-tris(4-methoxy-2,3,5,6-tetrafluorophenyl)-2,17-bis(sulfonic acid)-corrolato iron(III)], in experiment [2], the “Increase of cholesterol synthesis by MPMs” value came to 8%. Also, the “Increase in serum-mediated cholesterol efflux from J-774 macrophages” value in experiment [3] stood at 9%. The “Increase in cholesterol efflux from the E^0 MPM” value in experiment [4] is 14%.
